Like-named read-outs stand apart in the source and are kept apart here.
Tests used:
tubulin [1] = target: T1, tubulin (Bos taurus, UniProt Q6B856); experiment: Inhibition of tubulin assembly (turbidity time courses); assay type: biochemical, calf; details: 25 μM tubulin in GAB, 27.5 μM compound, stoichiometric ratio
T1 construct: Purified calf brain tubulin and chemicals were obtained as previously described; from tissue; host or cells: calf brain

[2] = target: T2, maytansine site of tubulin (Bos taurus, UniProt Q6B856); experiment: biochemical; assay type: binding, calf
T2 construct: Purified calf brain tubulin and chemicals were obtained as previously described; from tissue; host or cells: calf brain

A549 cells [3] = experiment: Cytotoxicity (antiproliferation assay) in A549; assay type: cell-based, human
A2780 cells = experiment: Cytotoxicity (antiproliferation assay) in A2780; assay type: cell-based, human
A2780AD cells = experiment: Cytotoxicity (antiproliferation assay) in A2780AD (pGp overexpressing); assay type: cell-based, human; details: for IC50: read-out: IC50 A2780AD; for R/S (resistance index): A2780AD versus A2780
A549 cells [4] = experiment: Effects on cellular microtubules by immunofluorescence microscopy; assay type: cell-based, human; details: fluorescence microscopy; for concentration at which the microtubule destabilizing effect is observed in interphasic cells: interphase; for concentration at which the microtubule destabilizing effect is observed in mitotic cells: mitosis
Source text: To do so, we performed fluorescence microscopy using A549 cells.
The effect of these compounds on the microtubule network and mitotic spindle was characterized in A549 tumor cells by fluorescence microscopy. […] Cells were immunostained for A)–I) α‐tubulin or A’)–I’) DNA, and A’’)–I’’) the images obtained were merged (tubulin in green and DNA in magenta). A)–A’’) Interphase cell treated with DMSO; notice the regular microtubule network evenly distributed in the cytoplasm. B)–B’’) Control metaphase cell with a normally distributed bipolar mitotic spindle in which all chromosomes are positioned in the metaphase plate. […] All images are shown at the same scale; scale bar: 10 μm.
In interphase the microtubule network covers the whole cytoplasm, while in dividing cells during metaphase there are regular bipolar spindles that allow the correct positioning and segregation of chromosomes in the subsequent division steps.
Indirect immunofluorescence images were obtained using A549 cells plated at a density of 130,000 cells/ml onto 12mm

tubulin [5] = test system: tubulin; design: method as in PMID 21043240; details: compared with maytansine; cited from earlier work
[6] = competition against Fc maytansine
[7] = competition against Fc maytansine, read-out: K d
[8] = A549 cell line, read-out: IC50 A549
[9] = A2780 cell line, read-out: IC50 A2780
[10] = A2780AD cell line, pGp overexpressing
[11] = Homo sapiens, A549, read-out: IC50 A549
[12] = Homo sapiens, A2780, read-out: IC50 A2780
[13] = Homo sapiens, A549 cell line, read-out: IC50 A549
[14] = Homo sapiens, A2780 cell line, read-out: IC50 A2780
[15] = Homo sapiens, A2780AD cell line, pGp overexpressing

T1 sequence (Q6B856 whole entry): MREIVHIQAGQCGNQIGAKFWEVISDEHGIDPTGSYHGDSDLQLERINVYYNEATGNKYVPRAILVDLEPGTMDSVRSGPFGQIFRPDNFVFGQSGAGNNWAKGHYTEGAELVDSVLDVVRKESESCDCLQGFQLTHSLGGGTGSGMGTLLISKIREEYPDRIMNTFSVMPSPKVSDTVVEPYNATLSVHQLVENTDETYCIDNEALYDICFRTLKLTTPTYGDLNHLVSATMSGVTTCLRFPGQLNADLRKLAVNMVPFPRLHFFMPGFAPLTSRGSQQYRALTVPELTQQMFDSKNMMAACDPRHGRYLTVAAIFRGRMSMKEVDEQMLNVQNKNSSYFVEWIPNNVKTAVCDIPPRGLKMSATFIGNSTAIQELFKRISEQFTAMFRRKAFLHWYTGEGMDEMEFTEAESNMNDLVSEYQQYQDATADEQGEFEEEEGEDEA
T1 sequence (P81947 whole entry partner): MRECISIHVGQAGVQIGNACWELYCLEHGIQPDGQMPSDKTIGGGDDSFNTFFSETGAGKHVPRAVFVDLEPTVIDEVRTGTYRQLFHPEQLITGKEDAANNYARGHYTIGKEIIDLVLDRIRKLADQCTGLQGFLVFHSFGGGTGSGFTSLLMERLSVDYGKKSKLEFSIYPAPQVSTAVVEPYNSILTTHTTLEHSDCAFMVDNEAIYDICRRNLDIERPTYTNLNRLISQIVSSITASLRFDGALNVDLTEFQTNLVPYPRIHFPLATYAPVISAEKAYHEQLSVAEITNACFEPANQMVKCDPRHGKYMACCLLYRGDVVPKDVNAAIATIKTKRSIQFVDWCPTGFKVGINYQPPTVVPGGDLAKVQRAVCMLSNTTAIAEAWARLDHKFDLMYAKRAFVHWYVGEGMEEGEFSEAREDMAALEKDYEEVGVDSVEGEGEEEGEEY
T2 sequence (Q6B856 whole entry): as the sequence (Q6B856 whole entry) above
T2 sequence (P81947 whole entry partner): as the sequence (P81947 whole entry partner) above

Row | Compound | Inhibition of tubulin assembly (tubulin [1]) | Mean K b [2, 6] | Kd [2, 7] | IC50 (A549 cells [3]; [8]) | IC50 (A2780 cells; [9]) | IC50 (A2780AD cells; [10]) | R/S (resistance index) (A2780AD cells) | IC50 (A549 cells [3]; [11]) | IC50 (A2780 cells; [12]) | IC50 (A2780AD cells; Homo sapiens, A2780AD) | Kd [2] | IC50 (A549 cells [3]; [13]) | IC50 (A2780 cells; [14]) | IC50 (A2780AD cells; [15]) | concentration at which the microtubule destabilizing effect is observed in interphasic cells (A549 cells [4]) | concentration at which the microtubule destabilizing effect is observed in mitotic cells (A549 cells [4]) | inhibitory activity on tubulin polymerization (tubulin [5])
1 | COc1cc2cc(c1Cl)N(C)C(=O)CC(OC(C)=O)C1(C)OC1C(C)C1C=C(NC(=O)O1)C(OC)C=CC=C(C)C2 (centres unmarked) [5 b] | strong inhibitors that completely abolished microtubule assembly | 1.17±0.04×10^6 M^−1 | 860 ± 30 nM | 190 ± 40 nM | 130 ± 20 nM | > 6160 nM | – | – | – | – | – | – | – | – | – | – | –
2 | COc1cc2cc(c1Cl)N(C)C(=O)CC(OC(=O)c1ccccc1)C1(C)OC1C(C)C1C=C(C(OC)C=CC=C(C)C2)N(C(=O)c2ccccc2)C(=O)O1 (centres unmarked) [7 a] | mild | 5.0±0.5×10^5 M^−1 | 2000 ± 200 nM | 47 ± 6 nM | – | 3500 ± 320 nM | – | – | – | – | – | – | – | – | – | – | –
3 | COc1cc2cc(c1Cl)N(C)C(=O)CC(OC(C)=O)C1(C)OC1C(C)C1CC(O)(NC(=O)O1)C(OC)C=CC=C(C)C2 (centres unmarked) [4 b] | – | 9±1×10^7 M^−1 | 11 ± 1 nM | 1.2 ± 0.3 nM | 0.25 ± 0.01 nM | 20 ± 1 nM | 80 | – | – | – | – | – | – | – | – | – | –
4 | COc1cc2cc(c1Cl)N(C)C(=O)CC(O)C1(C)OC1C(C)C=CC(=O)C(OC)C=CC=C(C)C2 (centres unmarked) [Compound 2] | weak inhibition | 1.42±0.08×10^6 M^−1 | 720 ± 50 nM | – | – | – | – | 15 ± 2 nM | 9.64 ± 0.97 nM | 981 ± 201 nM | – | – | – | – | – | – | –
5 | COc1cc2cc(c1Cl)N(C)C(=O)CC(O)C1(C)OC1C(C)C1CC(O)(NC(=O)O1)C(OC)/C=C/C=C(\C)C2 (centres unmarked) [1 b, Maytansinol] | noticeable effect at stoichiometric concentrations | 1.30±0.06×10^6 M^−1 | – | – | – | – | – | – | – | – | 780 ± 40 nM | 60 ± 3 nM | 23.8 ± 1.65 nM | 1460 ± 148 nM | 100 nM | 50 nM | weaker inhibitory activity on tubulin polymerization than maytansine
6 | C#CCCCCC(=O)OC1CC(=O)N(C)c2cc(cc(OC)c2Cl)CC(C)=CC=CC(OC)C2(O)CC(OC(=O)N2)C(C)C2OC12C (centres unmarked) [4 c] | – | 5.4±0.5×10^7 M^−1 | 20 ± 2 nM | 0.07 ± 0.008 nM | 0.033 ± 0.003 nM | 4.7 ± 0.6 nM | 142 | – | – | – | – | – | – | – | – | – | –
7 | COc1cc2cc(c1Cl)N(C)C(=O)C[C@H](OC(=O)c1ccccc1)[C@]1(C)O[C@H]1[C@H](C)[C@@H]1C[C@@](O)(NC(=O)O1)[C@H](OC)/C=C/C=C(\C)C2 [4 a] | – | 2.0±0.×10^7 M^−1 | 51 ± 3 nM | 0.24 ± 0.03 nM | 0.11 ± 0.01 nM | 11 ± 1 nM | 100 | – | – | – | – | – | – | – | 10 nM | 5 nM | –
8 | COc1cc2cc(c1Cl)N(C)C(=O)C[C@H](OC(=O)[C@H](C)N(C)C(C)=O)[C@]1(C)O[C@H]1[C@H](C)[C@@H]1C[C@@](O)(NC(=O)O1)[C@H](OC)/C=C/C=C(\C)C2 [1 a, Maytansine, reference compound] | completely abolishes tubulin polymerization | 9.0±1.3×10^7 M^−1 | – | – | – | – | – | – | – | – | 14 ± 2 nM | 0.278 ± 0.04 nM | 0.31 ± 0.02 nM | 19.5 ± 1.14 nM | 5 nM | 5 nM | –
9 | COc1cc2cc(c1Cl)N(C)C(=O)CC(OC(=O)c1ccccc1)C1(C)OC1C(C)C1C=C(NC(=O)O1)C(OC)C=CC=C(C)C2 (centres unmarked) [5 a] | strong inhibitors that completely abolished microtubule assembly | 9.2±0.3×10^5 M^−1 | 1090 ± 40 nM | > 570 nM | 338 ± 4.65 nM | 2630 ± 187 nM | – | – | – | – | – | – | – | – | – | – | –
10 | COc1cc2cc(c1Cl)N(C)C(=O)CC(O)C1(C)OC1C(C)C1C=C(C(OC)C=CC=C(C)C2)N(C(=O)c2ccccc2)C(=O)O1 (centres unmarked) [6 a] | strong inhibitors that completely abolished microtubule assembly | 6±2×10^5 M^−1 | – | > 1030 nM | 2090 ± 99 nM | 13500 ± 623 nM | – | – | – | – | – | – | – | – | – | – | –
11 | C#CCCCCC(=O)OC1CC(=O)N(C)c2cc(cc(OC)c2Cl)CC(C)=CC=CC(OC)C2=CC(OC(=O)N2)C(C)C2OC12C (centres unmarked) [5 c] | mild | 5.6±0.4×10^5 M^−1 | 1800 ± 120 nM | 320 ± 40 nM | 225 ± 15 nM | > 7960 nM | – | – | – | – | – | – | – | – | – | – | –
12 | COc1cc2cc(c1Cl)N(C)C(=O)CC(O)C1(C)OC1C(C)C1C=C(NC(=O)O1)C(OC)C=CC=C(C)C2 (centres unmarked) [Compound 3] | mild | 1.20±0.03×10^6 M^−1 | 830 ± 20 nM | – | – | – | – | 28 ± 2 nM | 74 ± 4 nM | > 19700 nM | – | – | – | – | – | – | –

From publication PMC9299702, “Maytansinol Derivatives: Side Reactions as a Chance for New Tubulin Binders” (Chemistry (Weinheim an Der Bergstrasse, Germany), 2021)
